Consider one molecule from article PMC9505425, “Targeting of the Mitochondrial TET1 Protein by Pyrrolo[3,2-b]pyrrole Chelators” (International Journal of Molecular Sciences, 2022).

The assay addresses T1, recombinant His-tagged TET1 protein (Homo sapiens, UniProt Q8NFU7).
T1 construct: purchased Active Motif, Carlsbad, CA, USA
The assay can be described thus: Microscale thermophoresis binding to His-tagged TET1. To be noted: MST, HEPES pH 7.5, 50 nM TET1. The protocol: We observed a ligand concentration-dependent decrease in labeled protein fluorescence (Figure 5), and fluorescence measurements during serial dilution were performed to discriminate between binding-specific fluorescence quenching (Figure 6) and loss of fluorescence due to protein precipitation.
For this test, the remainder of tubes 1 to 3 and 14 to 16 prepared in the original binding assay were centrifuged for 10 min at 15,000× g. Thereafter, 10 μL of each sample was removed and mixed with an equal volume of SD-mix (4% SDS and […] (assay buffer)) and heated to 95 °C for 5 min to denature the protein. Subsequently, samples were loaded to standard capillaries, and the fluorescence was detected using a Monolith NT.115. […] The KD value was calculated from ligand concentration-dependent changes in normalized fluorescence (Fnorm) of the TET1 protein after 25 s of thermophoresis, based on the law of mass action using the NT. Affinity Analysis software. […]
Microscale thermophoresis (MST) is a sensitive method that can be used to assess biomolecular interactions and has been utilized to study interactions between a variety of binding partners of different molecular sizes. […] Signals were recorded using 20% MST power and 40% LED power after 25 s. Measurement was repeated two times, and data were analyzed using the NTAnalysis software. […]

T1 sequence (Q8NFU7 whole entry): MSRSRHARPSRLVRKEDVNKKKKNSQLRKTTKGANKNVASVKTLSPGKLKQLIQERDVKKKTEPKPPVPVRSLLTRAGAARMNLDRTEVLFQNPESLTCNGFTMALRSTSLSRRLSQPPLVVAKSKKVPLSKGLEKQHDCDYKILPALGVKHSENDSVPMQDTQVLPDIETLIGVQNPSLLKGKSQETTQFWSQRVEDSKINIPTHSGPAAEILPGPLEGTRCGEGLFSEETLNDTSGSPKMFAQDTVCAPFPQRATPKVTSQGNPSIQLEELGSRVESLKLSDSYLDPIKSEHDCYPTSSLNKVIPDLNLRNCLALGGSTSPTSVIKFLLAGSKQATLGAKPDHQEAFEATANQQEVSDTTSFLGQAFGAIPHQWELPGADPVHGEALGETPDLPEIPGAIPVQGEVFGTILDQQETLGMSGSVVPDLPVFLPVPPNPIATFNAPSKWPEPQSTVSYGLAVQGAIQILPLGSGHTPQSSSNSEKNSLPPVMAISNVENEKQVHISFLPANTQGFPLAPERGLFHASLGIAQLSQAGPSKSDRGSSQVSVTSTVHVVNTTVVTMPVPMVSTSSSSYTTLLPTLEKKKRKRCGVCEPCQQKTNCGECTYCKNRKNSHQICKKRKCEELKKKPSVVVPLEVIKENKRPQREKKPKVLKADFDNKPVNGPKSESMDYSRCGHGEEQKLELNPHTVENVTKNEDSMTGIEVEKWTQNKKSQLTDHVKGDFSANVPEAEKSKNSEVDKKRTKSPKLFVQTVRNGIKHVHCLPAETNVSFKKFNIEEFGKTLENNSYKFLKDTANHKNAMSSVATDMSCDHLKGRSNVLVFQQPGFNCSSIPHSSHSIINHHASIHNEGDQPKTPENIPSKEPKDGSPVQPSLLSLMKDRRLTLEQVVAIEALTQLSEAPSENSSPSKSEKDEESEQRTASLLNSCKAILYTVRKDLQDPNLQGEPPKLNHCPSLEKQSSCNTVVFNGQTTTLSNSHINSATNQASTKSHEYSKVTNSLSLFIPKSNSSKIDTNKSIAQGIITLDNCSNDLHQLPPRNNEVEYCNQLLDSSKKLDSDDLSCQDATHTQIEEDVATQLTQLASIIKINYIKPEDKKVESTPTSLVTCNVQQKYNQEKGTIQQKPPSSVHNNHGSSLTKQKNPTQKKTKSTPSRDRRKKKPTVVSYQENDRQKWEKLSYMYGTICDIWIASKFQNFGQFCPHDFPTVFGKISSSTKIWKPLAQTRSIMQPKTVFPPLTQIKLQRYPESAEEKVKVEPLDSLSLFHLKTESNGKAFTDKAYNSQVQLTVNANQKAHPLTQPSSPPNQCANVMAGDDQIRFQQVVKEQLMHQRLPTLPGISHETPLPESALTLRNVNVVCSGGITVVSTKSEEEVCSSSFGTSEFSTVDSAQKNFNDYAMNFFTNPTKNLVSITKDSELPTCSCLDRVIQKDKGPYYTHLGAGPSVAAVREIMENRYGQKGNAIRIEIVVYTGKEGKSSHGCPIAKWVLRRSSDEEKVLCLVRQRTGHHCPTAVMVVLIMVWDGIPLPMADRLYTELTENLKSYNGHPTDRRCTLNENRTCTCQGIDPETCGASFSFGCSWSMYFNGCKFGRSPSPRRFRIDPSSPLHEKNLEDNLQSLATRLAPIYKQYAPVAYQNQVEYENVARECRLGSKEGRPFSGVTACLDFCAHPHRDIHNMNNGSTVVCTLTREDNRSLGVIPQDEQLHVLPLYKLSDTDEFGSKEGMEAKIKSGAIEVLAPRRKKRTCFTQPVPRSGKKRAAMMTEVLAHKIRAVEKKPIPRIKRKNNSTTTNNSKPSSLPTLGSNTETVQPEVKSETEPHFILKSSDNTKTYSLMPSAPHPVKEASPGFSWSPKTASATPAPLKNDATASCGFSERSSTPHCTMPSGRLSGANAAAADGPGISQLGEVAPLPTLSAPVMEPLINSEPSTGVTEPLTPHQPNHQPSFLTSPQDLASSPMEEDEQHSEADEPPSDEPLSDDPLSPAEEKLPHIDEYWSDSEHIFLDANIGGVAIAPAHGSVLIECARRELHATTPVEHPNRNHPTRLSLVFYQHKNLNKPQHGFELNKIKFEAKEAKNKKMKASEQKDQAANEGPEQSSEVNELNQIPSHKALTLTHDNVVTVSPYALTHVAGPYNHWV

For the molecule `Cc1ccc(-n2c(-c3ccc(C(=O)NN)cc3)cc3c2cc(-c2ccc(C(=O)NN)cc2)n3-c2ccc(C)cc2)cc1` [Compound 1], the dissociation constant (Kd) came out at 27.2 ± 0.9 µM.
